Assay [1] concerns the target EGFR L858R/C797S Ba/F3 cells (Homo sapiens, UniProt P00533, C797S/L858R, cells depend on it). In words: Ba/F3 cell proliferation (Cell Titer Glo), EGFR L858R/C797S. The class given is cell-based, murine. To be noted: 72 hours, Table 6. Summed up:
(§1)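 Retrovirally transduced, puromycin-selected Ba/F3 cells expressing EGFR L858R or L858R/C797S, grown in RPMI + 10% FBS, exposed to compounds for 72 h in triplicate. Viability by Cell Titer Glo ATP luminescence; IC50 from sigmoidal dose-response fit, binned A <0.1, B 0.1–0.5, C 0.5–2.5, D ≥2.5 μM.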

For assay [2], the target named is EGFR L858R/T790M (Homo sapiens, UniProt P00533, L858R/T790M). In words: EGFR biochemical assay (headed HTRF-based; method describes Z'-LYTE), L858R/T790M. To be noted: Table 4. Here is the method: (§2) To measure the IC50 values of compounds herein against EGFR, a Z′-LYTE assay (ThermoFisher) was used. Briefly, 2.5 μL of different concentrations of the compounds in 4% DMSO were added to 5 μL kinase/peptide mixture in each well of a 384-well plate (Corning Cat. #3676). 2.5 μL of 4× ATP solution (4× ATP, 50 mM HEPES, pH 7.5, 0.01% BRIJ-35, 10 mM MgCl2, 1 mM EGTA) were added to each well. The plate was shaken for 30 seconds, and then incubated at room temperature for 60 minutes. 5 μL of a 1:100000 dilution of Development Reagent A was added to each well. The plate was then incubated for 60 mins at room temperature. 5 μL of the stop reagent was then added. The plate was subsequently read on a fluorescence plate reader, and the emissions ratio was calculated to determine the ratio of Ser/Thr 07 phosphorylated by the reaction. Emissions Ratio═Coumarin Emission (443 nm)/Flourescein Emission (520 nm).
Chain of EGFR L858R/T790M (P00533 25-1210 T790M/L858R): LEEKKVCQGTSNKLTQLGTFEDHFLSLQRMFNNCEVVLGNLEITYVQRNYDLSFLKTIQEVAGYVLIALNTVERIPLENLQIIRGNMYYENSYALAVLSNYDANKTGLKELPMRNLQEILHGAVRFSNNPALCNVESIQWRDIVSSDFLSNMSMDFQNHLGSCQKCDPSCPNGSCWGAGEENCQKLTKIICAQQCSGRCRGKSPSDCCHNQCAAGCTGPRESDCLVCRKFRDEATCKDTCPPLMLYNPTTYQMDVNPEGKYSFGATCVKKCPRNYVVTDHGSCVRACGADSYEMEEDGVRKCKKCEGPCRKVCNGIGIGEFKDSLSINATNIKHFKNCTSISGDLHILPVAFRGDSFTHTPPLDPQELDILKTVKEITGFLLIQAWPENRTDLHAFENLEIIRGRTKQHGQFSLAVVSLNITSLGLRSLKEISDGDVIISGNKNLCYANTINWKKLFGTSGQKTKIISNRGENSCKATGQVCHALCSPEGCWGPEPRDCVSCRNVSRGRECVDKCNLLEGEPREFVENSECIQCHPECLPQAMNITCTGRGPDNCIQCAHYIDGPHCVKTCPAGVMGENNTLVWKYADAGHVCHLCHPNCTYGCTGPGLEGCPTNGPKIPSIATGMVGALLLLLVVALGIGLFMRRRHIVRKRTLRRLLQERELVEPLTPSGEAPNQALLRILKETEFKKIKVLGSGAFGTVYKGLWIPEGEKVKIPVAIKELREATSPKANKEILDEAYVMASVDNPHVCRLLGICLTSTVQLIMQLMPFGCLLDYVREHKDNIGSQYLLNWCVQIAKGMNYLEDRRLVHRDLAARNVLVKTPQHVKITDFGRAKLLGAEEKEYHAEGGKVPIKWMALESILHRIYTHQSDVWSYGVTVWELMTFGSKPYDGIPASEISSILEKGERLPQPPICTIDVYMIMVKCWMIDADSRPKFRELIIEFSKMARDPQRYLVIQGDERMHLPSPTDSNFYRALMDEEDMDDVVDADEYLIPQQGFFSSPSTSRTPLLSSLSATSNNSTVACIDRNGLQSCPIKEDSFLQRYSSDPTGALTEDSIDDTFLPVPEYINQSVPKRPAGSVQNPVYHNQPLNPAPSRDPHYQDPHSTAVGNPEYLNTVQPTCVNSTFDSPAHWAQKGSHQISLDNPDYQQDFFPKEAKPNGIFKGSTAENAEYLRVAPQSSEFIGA
(§3) HTRF-based EGFR assay data are provided below in Table 4.

Assay [3] has as its target EGFR mutant L858R Ba/F3 cells (Homo sapiens, UniProt P00533, L858R, cells depend on it). The assay can be described thus: Ba/F3 cell proliferation (Cell Titer Glo), EGFR L858R. The class given is cell-based, murine. To be noted: 72 hours, Table 6, read-out: L858R BaF3. A digest of the protocol: as §1
The target of assay [4] is EGFR L858R (Homo sapiens, UniProt P00533, L858R). The assay can be described thus: EGFR biochemical assay (headed HTRF-based; method describes Z'-LYTE), L858R. To be noted: Table 4. Here is the method:
as §2, §3

Chain of EGFR L858R/C797S Ba/F3 cells (P00533 whole entry C797S/L858R): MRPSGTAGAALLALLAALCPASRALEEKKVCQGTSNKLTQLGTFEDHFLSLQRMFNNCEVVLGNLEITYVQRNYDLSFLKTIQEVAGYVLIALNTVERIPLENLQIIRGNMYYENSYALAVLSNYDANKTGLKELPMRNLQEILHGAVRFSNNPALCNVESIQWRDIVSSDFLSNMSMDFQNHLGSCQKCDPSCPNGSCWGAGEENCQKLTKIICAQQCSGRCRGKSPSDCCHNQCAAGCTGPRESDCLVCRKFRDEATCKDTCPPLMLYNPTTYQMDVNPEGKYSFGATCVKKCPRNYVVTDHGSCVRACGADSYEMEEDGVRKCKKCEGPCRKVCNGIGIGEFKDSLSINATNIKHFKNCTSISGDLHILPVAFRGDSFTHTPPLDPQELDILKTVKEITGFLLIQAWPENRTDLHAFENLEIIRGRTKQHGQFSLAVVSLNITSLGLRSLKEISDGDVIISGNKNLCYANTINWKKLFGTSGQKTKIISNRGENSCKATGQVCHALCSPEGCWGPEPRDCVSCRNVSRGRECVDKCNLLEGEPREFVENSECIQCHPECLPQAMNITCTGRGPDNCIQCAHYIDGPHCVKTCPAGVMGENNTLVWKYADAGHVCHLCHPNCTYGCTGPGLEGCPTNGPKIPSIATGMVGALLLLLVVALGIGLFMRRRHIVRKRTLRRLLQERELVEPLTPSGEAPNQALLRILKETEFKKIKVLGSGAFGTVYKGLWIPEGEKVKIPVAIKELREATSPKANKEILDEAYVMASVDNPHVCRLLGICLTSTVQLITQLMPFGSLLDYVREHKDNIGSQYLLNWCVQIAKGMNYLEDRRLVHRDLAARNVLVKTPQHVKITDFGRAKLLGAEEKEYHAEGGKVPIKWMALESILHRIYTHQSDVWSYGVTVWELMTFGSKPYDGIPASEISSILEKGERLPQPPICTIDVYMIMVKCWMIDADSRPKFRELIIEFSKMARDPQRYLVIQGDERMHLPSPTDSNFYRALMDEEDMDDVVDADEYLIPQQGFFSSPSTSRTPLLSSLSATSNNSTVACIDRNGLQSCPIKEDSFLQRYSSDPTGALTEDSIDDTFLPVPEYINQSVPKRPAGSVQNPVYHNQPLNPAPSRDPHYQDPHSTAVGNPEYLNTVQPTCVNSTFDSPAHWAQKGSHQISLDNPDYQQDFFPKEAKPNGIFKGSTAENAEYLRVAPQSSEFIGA
Chain of EGFR mutant L858R Ba/F3 cells (P00533 whole entry L858R): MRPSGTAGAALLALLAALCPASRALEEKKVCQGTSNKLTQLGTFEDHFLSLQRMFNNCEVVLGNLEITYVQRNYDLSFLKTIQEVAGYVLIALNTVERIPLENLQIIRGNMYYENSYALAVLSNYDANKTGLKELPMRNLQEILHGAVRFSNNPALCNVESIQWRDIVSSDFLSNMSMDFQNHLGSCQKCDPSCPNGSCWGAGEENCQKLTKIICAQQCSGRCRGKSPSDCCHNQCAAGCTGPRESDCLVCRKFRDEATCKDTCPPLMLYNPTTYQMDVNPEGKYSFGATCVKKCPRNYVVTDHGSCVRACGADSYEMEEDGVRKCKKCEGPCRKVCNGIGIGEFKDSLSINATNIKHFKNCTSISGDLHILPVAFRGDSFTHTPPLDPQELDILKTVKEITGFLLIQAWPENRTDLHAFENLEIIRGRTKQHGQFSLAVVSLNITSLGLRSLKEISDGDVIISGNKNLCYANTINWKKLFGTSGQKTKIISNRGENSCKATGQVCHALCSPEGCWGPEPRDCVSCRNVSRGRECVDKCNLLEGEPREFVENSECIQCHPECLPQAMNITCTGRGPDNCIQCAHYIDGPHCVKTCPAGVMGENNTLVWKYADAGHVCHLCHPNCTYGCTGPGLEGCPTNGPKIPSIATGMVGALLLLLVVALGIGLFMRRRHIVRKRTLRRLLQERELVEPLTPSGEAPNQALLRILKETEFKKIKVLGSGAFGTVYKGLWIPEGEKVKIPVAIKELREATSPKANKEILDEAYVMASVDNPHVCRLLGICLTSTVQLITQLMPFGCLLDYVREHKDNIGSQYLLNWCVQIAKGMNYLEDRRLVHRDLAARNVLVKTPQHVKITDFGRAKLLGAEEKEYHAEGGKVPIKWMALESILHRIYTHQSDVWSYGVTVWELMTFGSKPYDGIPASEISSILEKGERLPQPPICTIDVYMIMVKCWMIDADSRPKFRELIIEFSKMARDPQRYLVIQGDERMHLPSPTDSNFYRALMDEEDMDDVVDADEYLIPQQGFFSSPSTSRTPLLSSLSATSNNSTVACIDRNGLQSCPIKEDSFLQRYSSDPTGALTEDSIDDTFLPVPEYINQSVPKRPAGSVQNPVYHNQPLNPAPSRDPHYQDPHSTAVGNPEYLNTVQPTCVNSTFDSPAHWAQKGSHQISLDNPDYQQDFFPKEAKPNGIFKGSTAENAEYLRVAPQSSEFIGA
Chain of EGFR L858R (P00533 25-1210 L858R): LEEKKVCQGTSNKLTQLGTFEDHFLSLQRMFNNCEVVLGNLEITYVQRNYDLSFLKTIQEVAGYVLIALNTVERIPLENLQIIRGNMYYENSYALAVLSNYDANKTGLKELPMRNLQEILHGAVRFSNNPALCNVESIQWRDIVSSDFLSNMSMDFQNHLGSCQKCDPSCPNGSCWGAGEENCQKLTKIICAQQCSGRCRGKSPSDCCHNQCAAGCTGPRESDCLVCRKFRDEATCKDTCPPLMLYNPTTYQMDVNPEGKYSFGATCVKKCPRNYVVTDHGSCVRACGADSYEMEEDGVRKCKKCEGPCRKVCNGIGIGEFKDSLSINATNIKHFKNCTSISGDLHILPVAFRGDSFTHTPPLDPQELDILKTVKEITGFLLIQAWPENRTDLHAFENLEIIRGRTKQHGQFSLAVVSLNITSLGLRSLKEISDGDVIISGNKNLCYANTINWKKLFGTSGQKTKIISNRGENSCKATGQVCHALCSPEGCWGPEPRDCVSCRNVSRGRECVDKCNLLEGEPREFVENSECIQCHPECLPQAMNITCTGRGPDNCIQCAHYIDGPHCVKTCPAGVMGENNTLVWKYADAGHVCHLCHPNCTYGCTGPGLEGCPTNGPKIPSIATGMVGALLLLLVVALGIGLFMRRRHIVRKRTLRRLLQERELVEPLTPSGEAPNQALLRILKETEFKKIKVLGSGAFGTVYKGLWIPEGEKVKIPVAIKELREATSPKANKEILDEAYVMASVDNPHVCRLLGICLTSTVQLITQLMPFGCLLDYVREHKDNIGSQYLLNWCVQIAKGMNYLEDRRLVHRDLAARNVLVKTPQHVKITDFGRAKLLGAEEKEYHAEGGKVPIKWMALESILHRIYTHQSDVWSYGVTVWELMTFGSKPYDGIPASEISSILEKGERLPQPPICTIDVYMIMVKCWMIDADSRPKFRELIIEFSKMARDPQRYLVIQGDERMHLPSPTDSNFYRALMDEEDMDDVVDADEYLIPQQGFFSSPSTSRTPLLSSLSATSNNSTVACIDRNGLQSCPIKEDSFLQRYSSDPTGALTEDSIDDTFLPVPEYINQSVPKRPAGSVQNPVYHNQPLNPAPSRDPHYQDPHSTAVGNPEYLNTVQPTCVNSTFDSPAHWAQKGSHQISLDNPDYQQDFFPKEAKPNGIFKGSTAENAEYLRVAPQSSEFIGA

`C=CC(=O)N1CCC(N2Cc3cnc(Nc4ccc(N5CCN(C)CC5)cc4)nc3N(CC(F)F)C2=O)c2cccc(OC)c21` (stereo not drawn) [Compound 134, 3-(1-acryloyl-8-methoxy-1,2,3,4-tetrahydroquinolin-4-yl)-1-(2,2-difluoroethyl)-7-((4-(4-methylpiperazin-1-yl)phenyl)amino)-3,4-dihydropyrimido[4,5-d]pyrimidin-2(1H)-one]: the GI50 in assay [1] was 100 to 500 nM; in assay [3], below 100 nM. Moreover, the 50% inhibitory concentration (IC50) in assay [2] was above 1000 nM; in assay [4] it was 38.9 nM.

As to `C=CC(=O)N1c2ccccc2[C@@H](N2Cc3cnc(Nc4ccc(N5CCN(C)CC5)cc4)nc3N(C)C2=O)C[C@@H]1C` [Compound 135, 1-methyl-7-[4-(4-methylpiperazin-1-yl)anilino]-3-[(2S,4S)-2-methyl-1-prop-2-enoyl-3,4-dihydro-2H-quinolin-4-yl]-4H-pyrimido[4,5-d]pyrimidin-2-one], the GI50 in assay [1] and in assay [3] was below 100 nM throughout. The IC50 in assay [2] was above 1000 nM; in assay [4], 0.89 nM.

On to `C=C(CN1CCC(N2Cc3cnc(Nc4ccc(N5CCN(C)CC5)cc4)nc3N(C)C2=O)C1)C(=O)O` (stereo not drawn) [Compound 136, 2-[[3-[1-methyl-7-[4-(4-methylpiperazin-1-yl)anilino]-2-oxo-4H-pyrimido[4,5-d]pyrimidin-S-yl]pyrrolidin-1-yl]methyl]prop-2-enoic acid], for which the GI50 in assay [1] and in assay [3] was at least 2500 nM in each case. In addition, the IC50 in assay [2] and in assay [4] was above 1000 nM each time.

As to `C=C(CN1CC(N2Cc3cnc(Nc4ccc(N5CCN(C)CC5)cc4)nc3N(C)C2=O)C1)C(=O)O` [Compound 137, 2-[[3-[1-methyl-7-[4-(4-methylpiperazin-1-yl)anilino]-2-oxo-4H-pyrimido[4,5-d]pyrimidin-S-yl]azetidin-1-yl]methyl]prop-2-enoic acid], the GI50 in assay [1] and in assay [3] was at least 2500 nM in each case. The half-maximal inhibitory concentration (IC50) in assay [2] and in assay [4] was above 1000 nM throughout.

Take `C=CC(=O)N1C[C@@H](N2Cc3cnc(Nc4ccc(N5CCN(C)CC5)cc4)nc3N(C)C2=O)C[C@@H]1C(=O)O` [Compound 138, (2R,4S)-4-[1-methyl-7-[4-(4-methylpiperazin-1-yl)anilino]-2-oxo-4H-pyrimido[4,5-d]pyrimidin-S-yl]-1-prop-2-enoyl-pyrrolidine-2-carboxylic acid]: the GI50 in assay [1] and in assay [3] was at least 2500 nM in each case. Besides, the IC50 in assay [2] and in assay [4] was above 1000 nM throughout.

In the case of `C=CC(=O)N(C)c1ccccc1CN1Cc2cnc(Nc3ccc(N4CCN(C)CC4)cc3)nc2N(C)C1=O` [Compound 139, N-methyl-N-[2-[[1-methyl-7-[4-(4-methylpiperazin-1-yl)anilino]-2-oxo-4H-pyrimido[4,5-d]pyrimidin-S-yl]methyl]phenyl]prop-2-enamide], the values for the GI50 in assay [1] and in assay [3] were 500 to 2500 nM and 100 to 500 nM, respectively. Besides, the IC50 in assay [2] and in assay [4] was above 1000 nM each time.

As to `C=CC(=O)N1CC[C@H](N2Cc3cnc(Nc4ccc(N5CCN(C)CC5)cc4)nc3N(C)C2=O)c2cccc(C)c21` [Compound 140, 1-methyl-7-[4-(4-methylpiperazin-1-yl)anilino]-S-[(4S)-8-methyl-1-prop-2-enoyl-3,4-dihydro-2H-quinolin-4-yl]-4H-pyrimido[4,5-d]pyrimidin-2-one], the GI50 in assay [1] and in assay [3] was below 100 nM in each case. The results for the half-maximal inhibitory concentration (IC50) in assay [2] and in assay [4] were above 1000 nM and 0.97 nM, respectively.

As to `C=CC(=O)N1CC[C@@H](N2Cc3cnc(Nc4ccc(N5CCN(C)CC5)cc4)nc3N(C)C2=O)c2cccc(C)c21` [Compound 141], the GI50 in assay [1] and in assay [3] was 100 to 500 nM throughout. The concentration for half-maximal inhibition (IC50) in assay [2] and in assay [4] was above 1000 nM throughout.

Consider `C=CC(=O)N1CCC12CC(N1Cc3cnc(Nc4ccc(N5CCN(C)CC5)cc4)nc3N(C)C1=O)C2` (stereo not drawn) [Compound 142, 1-methyl-7-[4-(4-methylpiperazin-1-yl)anilino]-S-(1-prop-2-enoyl-1-azaspiro[3.3]heptan-6-yl)-4H-pyrimido[4,5-d]pyrimidin-2-one], for which the GI50 was at least 2500 nM in assay [1] and 500 to 2500 nM in assay [3]. Further, the half-inhibitory concentration (IC50) in assay [2] and in assay [4] was above 1000 nM each time.

Take `C=CC(=O)N1CCC(N2Cc3cnc(Nc4ccc(N5CCN(C)CC5)cc4)nc3N(C)C2=O)c2cccc(C(F)(F)F)c21` (stereo not drawn) [Compound 143, 1-methyl-7-[4-(4-methylpiperazin-1-yl)anilino]-S-[1-prop-2-enoyl-8-(trifluoromethyl)-3,4-dihydro-2H-quinolin-4-yl]-4H-pyrimido[4,5-d]pyrimidin-2-one]: the GI50 was at least 2500 nM in assay [1] and 500 to 2500 nM in assay [3]. The concentration for half-maximal inhibition (IC50) in assay [2] and in assay [4] was above 1000 nM throughout.

As to `C=CC(=O)N1CC[C@H](N2Cc3cnc(Nc4ccc(CS(C)(=O)=O)cc4)nc3N(C)C2=O)c2cccc(C)c21` [Compound 144], the GI50 in assay [1] and in assay [3] was below 100 nM throughout. For the same compound, the half-maximal inhibitory concentration (IC50) in assay [2] was above 1000 nM; in assay [4], 1.57 nM.

For `C=CC(=O)N1CC[C@H](N2Cc3cnc(Nc4ccc(CS(=O)(=O)NC)cc4)nc3N(C)C2=O)c2cccc(C)c21` [Compound 145], the GI50 in assay [1] and in assay [3] was below 100 nM throughout. For the same compound, the half-maximal inhibitory concentration (IC50) in assay [2] was above 1000 nM; in assay [4] it was 1.77 nM.

Consider `C=CC(=O)N1CC[C@H](N2Cc3cnc(Nc4ccc(N5CCN(C)CC5)cc4)nc3N(C)C2=O)C[C@@H]1CO` [Compound 146, 3-[(2R,4S)-2-(hydroxymethyl)-1-prop-2-enoyl-4-piperidyl]-1-methyl-7-[4-(4-methylpiperazin-1-yl)anilino]-4H-pyrimido[4,5-d]pyrimidin-2-one], for which the GI50 was at least 2500 nM in assay [1] and 500 to 2500 nM in assay [3]. Further, the half-maximal inhibitory concentration (IC50) in assay [2] and in assay [4] was above 1000 nM throughout.

Consider `C=CC(=O)N1CCC(N2Cc3cnc(Nc4ccc(N5CCN(C)CC5)cc4)nc3N(C)C2=O)c2cccc(Cl)c21` (stereo not drawn) [Compound 147, 3-(8-chloro-1-prop-2-enoyl-3,4-dihydro-2H-quinolin-4-yl)-1-methyl-7-[4-(4-methylpiperazin-1-yl)anilino]-4H-pyrimido[4,5-d]pyrimidin-2-one], for which the GI50 in assay [1] was at least 2500 nM; in assay [3], 500 to 2500 nM. Moreover, the half-maximal inhibitory concentration (IC50) in assay [2] and in assay [4] was above 1000 nM each time.

On to `C=CC(=O)N1CCC(N2Cc3cnc(Nc4ccc(N5CCN(C)CC5)cc4)nc3N(C)C2=O)c2cccc(C#N)c21` (stereo not drawn) [Compound 150, 4-[1-methyl-7-[4-(4-methylpiperazin-1-yl)anilino]-2-oxo-4H-pyrimido[4,5-d]pyrimidin-S-yl]-1-prop-2-enoyl-3,4-dihydro-2H-quinoline-8-carbonitrile], for which the GI50 in assay [1] and in assay [3] was 500 to 2500 nM throughout. Further, the IC50 in assay [2] and in assay [4] was above 1000 nM throughout.

For `C=CC(=O)N1CC[C@H](N2Cc3cnc(Nc4ccc(N5CCN(C)CC5)cc4)nc3N(C3CCOC3)C2=O)c2cccc(C)c21` (stereo partly drawn) [Compound 151, 7-[4-(4-methylpiperazin-1-yl)anilino]-S-[(4S)-8-methyl-1-prop-2-enoyl-3,4-dihydro-2H-quinolin-4-yl]-1-tetrahydrofuran-S-yl-4H-pyrimido[4,5-d]pyrimidin-2-one], the GI50 in assay [1] and in assay [3] was below 100 nM each time. Besides, the IC50 was above 1000 nM in assay [2] and 0.86 nM in assay [4].

On to `C=CC(=O)N1CC[C@H](N2Cc3cnc(Nc4ccc(N5CCN(C)CC5)cc4)nc3N(C3CC(O)C3)C2=O)c2cccc(C)c21` (stereo partly drawn) [Compound 152, 1-(3-hydroxycyclobutyl)-7-[4-(4-methylpiperazin-1-yl)anilino]-S-[(4S)-8-methyl-1-prop-2-enoyl-3,4-dihydro-2H-quinolin-4-yl]-4H-pyrimido[4,5-d]pyrimidin-2-one], for which the GI50 in assay [1] and in assay [3] was below 100 nM in each case. The 50% inhibitory concentration (IC50) in assay [2] is above 1000 nM; in assay [4], 1.17 nM.

Consider `C=CC(=O)N1CC[C@H](N2Cc3cnc(Nc4ccc(N5CCN(C)CC5)cc4)nc3N(CCO)C2=O)c2cccc(C)c21` [Compound 153, 1-(2-hydroxyethyl)-7-[4-(4-methylpiperazin-1-yl)anilino]-S-[(4S)-8-methyl-1-prop-2-enoyl-3,4-dihydro-2H-quinolin-4-yl]-4H-pyrimido[4,5-d]pyrimidin-2-one], for which the GI50 in assay [1] and in assay [3] was below 100 nM in each case. Besides, the half-inhibitory concentration (IC50) in assay [2] is above 1000 nM; in assay [4] it was 0.88 nM.

These data come from US20240352021A1 (DANA-FARBER CANCER INSTITUTE, INC., priority 2021, published 2024).
